Where two headings read alike, the source gives them in different places.
Assays:
KS 483 cells = assay: Osteogenesis in KS 483 cells (ALP activity, nodule formation, Ca deposition, osteoblastic marker mRNA); format: cell-based
Method: KS 483 cells were continuously treated for 21 days with various concentrations of genistein from day one onwards. Genistein had clear biphasic effects on osteogenesis. The stimulatory effects of genistein on alkaline phosphatase (ALP) activity, nodule formation and Ca deposition were found in the range of 0.1 μM to 10 μM, with a maximal effect at 1 μM. In contrast, the inhibitory effects of genistein on ALP activity, nodule formation and Ca deposition occurred at concentrations of 25 μM or higher.

[1] = tested on: mouse bone marrow cell cultures; assay: Osteogenesis in mouse bone marrow cell cultures; format: cell-based
Method: (§1) Similar stimulatory and inhibitory effects of genistein on bone formation were also observed in mouse and human bone marrow cell cultures. Like in KS483 cells, the stimulatory effects on ALP activity and Ca deposition in mouse bone marrow cultures occurred at concentrations between 0.1 μM and 10 μM, whereas the inhibitory effects were also found at the concentrations of 25 μM or higher. In human bone marrow cell cultures, the stimulatory effects was found at 0.001 μM, whereas the inhibitory effects were observed above 4 μM.

[2] = tested on: human bone marrow cell cultures; assay: Osteogenesis in human bone marrow cell cultures; format: cell-based
Method: as §1

KS483 cells = assay: Adipogenesis (adipocyte numbers) in KS483 cells; format: cell-based; settings: KS483 cells treated from day 1 onwards
Description: (§2) These inhibitory and stimulatory effects of genistein on adipogenesis in KS483 cells were further confirmed by mRNA expression of the adipocyte markers, PPARγ2, adipocyte protein 2 (aP2) and lipoprotein lipase (LPL). Adipogenic responses of mouse bone marrow cells to different doses of genistein were obtained.

mouse bone marrow cells = assay: Adipogenesis (adipocyte numbers) in mouse bone marrow cultures; format: cell-based
Description: as §2

[3] = tested on: human bone marrow cultures; assay: Adipogenesis (adipocyte numbers) in human bone marrow cultures; format: cell-based
[4] = tested on: estrogenic receptor responsive element (ERE); assay: ERE luciferase reporter in transiently transfected KS483 cells; format: cell-based
Method: KS483 cell were transiently transfected with a luciferase reporter construct containing two copies of a consensus estrogenic receptor responsive element (ERE) inserted in front of TATA or five copies of a consensus PPARy responsive element (PPRE) inserted in front of TATA or empty TATA-luciferase reporter along with expression plasmids encoding human PPARγ2. […] Similarly, a dose-related increase of PPRE reporter activity was found in the range of 1 μM to 50 μM.
It is also possible that an activation of PPARγ down regulated transcriptional activity of estrogen, i.e. there is cross-talk between ER's and PPARγ. […] Ligand concentration thus plays a crucial role in determining the degree of activation of ER's and PPARγ.

human PPARγ2 = target: T1, human PPARγ2 (Homo sapiens, UniProt P37231); assay: PPRE luciferase reporter in KS483 cells with human PPARγ2 expression plasmid; format: cell-based
T1 construct: expressed in transfected cells; host or cells: KS483 cells
T1 sequence (P37231 1-505): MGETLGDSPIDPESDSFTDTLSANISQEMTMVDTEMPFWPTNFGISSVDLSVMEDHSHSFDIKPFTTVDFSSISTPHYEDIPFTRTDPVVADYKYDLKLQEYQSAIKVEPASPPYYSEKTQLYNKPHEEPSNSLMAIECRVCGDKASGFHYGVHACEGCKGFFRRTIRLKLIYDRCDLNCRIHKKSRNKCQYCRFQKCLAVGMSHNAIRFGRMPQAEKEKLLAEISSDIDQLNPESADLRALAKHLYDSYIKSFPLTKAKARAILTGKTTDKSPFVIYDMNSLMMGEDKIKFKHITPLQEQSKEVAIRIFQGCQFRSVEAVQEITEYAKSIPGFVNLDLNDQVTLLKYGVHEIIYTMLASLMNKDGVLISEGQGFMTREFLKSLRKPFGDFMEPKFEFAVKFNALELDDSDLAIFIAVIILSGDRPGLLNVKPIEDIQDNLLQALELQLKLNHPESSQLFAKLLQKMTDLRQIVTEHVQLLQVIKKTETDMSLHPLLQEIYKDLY
Description: KS483 cell were transiently transfected with a luciferase reporter construct containing two copies of a consensus estrogenic receptor responsive element (ERE) inserted in front of TATA or five copies of a consensus PPARy responsive element (PPRE) inserted in front of TATA or empty TATA-luciferase reporter along with expression plasmids encoding human PPARγ2.
To determine whether genistein activates PPARγ through direct interaction with this receptor, we performed membrane-bound PPARγ binding assay.

PPARγ [5] = target: T2, PPARγ (Homo sapiens, UniProt P37231); assay: Membrane-bound PPARγ binding assay
T2 sequence (P37231 1-505): T1 sequence (P37231 1-505)
Description: The dose-related increase of PPRE reporter activity by genistein was also observed when a luciferase reporter construct containing three copies of a consensus PPRE inserted in front of a minimal thymidine kinase promoter. To determine whether genistein activates PPARγ through direct interaction with this receptor, we performed membrane-bound PPARγ binding assay.

p42 and p44 MAPK = assay: Western blot of p42 and p44 MAPK activity; format: cell-based
Description: It has been shown that phosphorylation of PPARγ by p42 and p44 mitogen activated protein kinase (MAPK) regulates PPARγ activity. We therefore performed western blot to test whether genistein at the micromolar concentrations inhibit p42 and p44 MAPK activity. […] An inhibition of p42 and p44 vMAPK activity is likely to potentiate PPARγ activity.

[6] = tested on: estrogen receptors (ER's); assay: In vitro model, summary: activation of estrogen receptors; format: cell-based; settings: leads to stimulation of osteogenesis
PPARγ [7] = target: T2, PPARγ; assay: In vitro model, summary: activation of and binding to PPARγ; format: cell-based; settings: triggers adipogenesis
Description: (§3) Despite the large number of prior art publications that deal with the favourable effect of genistein on e.g. osteogenesis and/or adipogenesis, it has not been recognized before that it is crucial to avoid that plasma genistein levels reach a level that is sufficient to activate the PPARγ receptor in order to prevent inhibition of osteoblast activity and differentiation and to prevent stimulation of adipogenesis. As a matter of fact some of these publications recommend genistein dosages and plasma levels that according to the inventors' findings will produce significant adverse results. The inventors have developed a highly reproducible and sensitive in vitro model that has allowed them to discover that the effect of genistein components on e.g. osteogenesis and adipogenesis is biphasic, i.e. at plasma genistein levels above about 0.02 μM estrogen receptors (ER's) may be activated, leading to stimulation of osteogenesis, whilst at plasma genistein levels above about 4 μM the PPARγ receptor is activated, which triggers adipogenesis. By maintaining the plasma genistein levels at a level where the estrogen receptors are continuously activated, whilst at the same time avoiding activation of the PPARγ receptor, disorders such as osteoporosis and obesity may effectively be treated. […] These effects are mediated through the ER's.
At the same time the adipogenesis increases. […]

[8] = tested on: osteogenesis and adipogenesis; assay: In vitro model, summary: osteogenesis stimulated and adipogenesis inhibited; format: cell-based; settings: low plasma concentrations, ER mediated
Description: as §3

[9] = cited from earlier work
[10] = tested on: ovariectomised, lactating rats; settings: cited from earlier work
PPARγ [11] = target: T3, PPARγ (Mus musculus, UniProt P37238); settings: cited from earlier work; for PPARγ binding and activation: may act as allosteric effectors
T3 construct: host or cells: mouse macrophages
T3 sequence (P37238 1-505): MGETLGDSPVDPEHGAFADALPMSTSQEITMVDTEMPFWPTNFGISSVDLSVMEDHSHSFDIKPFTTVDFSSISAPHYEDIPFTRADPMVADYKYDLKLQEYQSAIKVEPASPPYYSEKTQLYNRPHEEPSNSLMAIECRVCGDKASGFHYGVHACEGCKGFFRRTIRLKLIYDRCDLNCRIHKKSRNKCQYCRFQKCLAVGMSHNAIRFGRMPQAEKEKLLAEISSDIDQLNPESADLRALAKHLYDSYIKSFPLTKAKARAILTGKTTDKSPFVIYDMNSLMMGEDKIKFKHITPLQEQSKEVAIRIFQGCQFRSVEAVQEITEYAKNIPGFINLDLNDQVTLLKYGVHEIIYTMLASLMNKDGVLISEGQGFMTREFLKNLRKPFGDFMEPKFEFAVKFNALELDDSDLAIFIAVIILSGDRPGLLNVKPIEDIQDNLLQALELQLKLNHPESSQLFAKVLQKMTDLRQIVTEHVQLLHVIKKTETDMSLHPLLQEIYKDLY

3T3-L1 = settings: cited from earlier work; for proliferation of preadipocytes: time- and dose-dependent
[12] = dose 8 mg/kg body weight; cited from earlier work
3T3-L1 cels = settings: cited from earlier work
[13] = 61.7 μmole genistein per kg bodyweight per day

Question: For `O=c1c(-c2ccc(O)cc2)coc2cc(O)cc(O)c12` [genistein], which “concentration of maximal stimulatory effect on ALP activity, nodule formation and Ca deposition” value (KS 483 cells; KS 483 cells, 21 days) is on record?
Answer: Its value is 1 µM.

Question: What about the “concentrations of inhibitory effects on ALP activity, nodule formation and Ca deposition” value (KS 483 cells; KS 483 cells, 21 days) of the same compound?
Answer: Its value is no less than 25 µM.

Question: And the “bone formation by mRNA expression of Cbfal, osteocalcin and PTH/PTHrP receptor” value (KS 483 cells; genistein 1 μM)?
Answer: The value was “increase of bone formation”.

Question: What about the “bone formation by mRNA expression of Cbfal, osteocalcin and PTH/PTHrP receptor” value (KS 483 cells; genistein 25 μM) of the same compound?
Answer: The value was “decrease of bone formation”.

Question: What about the “concentrations of inhibitory effects on bone formation” value [1] of the same compound?
Answer: The value was no less than 25 µM.

Question: And the “concentration at which stimulatory effects on bone formation were found” value [2]?
Answer: The value was 0.001 µM.

Question: And the “concentrations at which inhibitory effects on bone formation were observed” value [2]?
Answer: The value was “above 4 μM”.

Question: And the “concentrations of increased adipocyte numbers” value (KS483 cells)?
Answer: The value was no less than 10 µM.

Question: And the “concentrations with an increase in adipocyte numbers” value (mouse bone marrow cells)?
Answer: The value was “above 4 μM”.

Question: What about the “concentration with an increase in adipocyte numbers” value [3] of the same compound?
Answer: The value was 10 µM.

Question: And the “concentration at which ERE reporter activity reaches the maximal level” value ([4]; KS483 cells)?
Answer: Its value is 50 µM.

Question: What about the “effect of co-transfection of PPARγ2 on ERE reporter activity” value ([4]; KS483 cells exposed to the same concentrations of genistein) of the same compound?
Answer: The value was “decreased ERE reporter activity”.

Question: And the “concentration at which PPRE reporter activity reaches the maximal level” value (human PPARγ2; KS483 cells)?
Answer: Its value is 50 µM.

Question: And the “effect of co-transfection of ERα on PPRE reporter activity” value (human PPARγ2; KS483 cells exposed to genistein)?
Answer: Its value is “down regulation of PPRE reporter activity”.

Question: What about the Ki (PPARγ [5]) of the same compound?
Answer: The Ki was 5.7 µM.

Question: What about the “concentration range of inhibition of p42 and p44 MAPK activity” value (p42 and p44 MAPK) of the same compound?
Answer: The value was “micromolar range”.

Question: And the “plasma genistein level above which estrogen receptors may be activated” value [6]?
Answer: The value was “above 0.02 μM”.

Question: What about the “genistein level above which the PPARγ receptor is bound/activated” value (PPARγ [7]) of the same compound?
Answer: Its value is “above 4 μM”.

Question: What about the “plasma concentrations at which osteogenesis is stimulated and adipogenesis is inhibited” value [8] of the same compound?
Answer: The value was 0.02 to 3 µM.

Question: What about the “plasma concentration of genistein” value ([9]; Japanese who consume high amounts of soy products) of the same compound?
Answer: The value was roughly 5 µM.

Question: What about the “plasma concentration of genistein” value ([9]; humans consuming diets without soy) of the same compound?
Answer: The value was “less than 20 nM”.

Question: And the “effect on uterine weight” value [10, 13]?
Answer: The value was “negative impact on uterine weight”.

Question: What about the “response on retention of bone mass” value [10, 13] of the same compound?
Answer: Its value is “lower response”.

Question: And the “dosages with positive effect on the retention of bone mass” value ([10]; ovariectomised, lactating rats)?
Answer: Its value is 6.2-19.7 μmole genistein per kg bodyweight per day.

Question: And the PPARγ activity (PPARγ [11]; concentration of 10 μM)?
Answer: Its PPARγ activity is “not stimulate PPARγ activity”.

Question: And the PPAR-γ expression (3T3-L1; added to 2-day postconfluent preadipocytes at the induction of differentiation)?
Answer: Its PPAR-γ expression is “inhibit PPAR-γ expression”.

Question: And the proliferation of preadipocytes (3T3-L1)?
Answer: The proliferation of preadipocytes was “inhibit proliferation of preadipocytes”.

Question: And the serum genistein [12]?
Answer: Its serum genistein is roughly 10 µM.

Question: What about the D/M induced adipogenesis (3T3-L1 cels; 3.3 μM, lowest concentration tested) of the same compound?
Answer: The D/M induced adipogenesis was “weak inhibitory influence”.

Question: And the D/M induced adipogenesis (3T3-L1 cels; 100 μM)?
Answer: Its D/M induced adipogenesis is “effectively abolishes adipogenic conversion”.

Question: And the D/M induced adipogenesis (3T3-L1 cels; 10 and 33 μM)?
Answer: Its D/M induced adipogenesis is “marked inhibition of adipogenesis”.

Question: Which “PPARγ binding and activation” value (PPARγ [11]) does the source give for `O=c1cc(-c2ccc(O)cc2)oc2cc(O)cc(O)c12` [apigenin] here?
Answer: The value was “able to bind and activate PPARγ”.

Question: For `CCCc1c(OCCCCc2nnn[nH]2)ccc(C(C)=O)c1O` [LY 171883, reference compound], which Ki (PPARγ [5]) is on record?
Answer: Its Ki is 4.2 µM.

Question: Which proliferation of preadipocytes (3T3-L1) does the source give for `O=C1C[C@@H](c2ccc(O)cc2)Oc2cc(O)cc(O)c21` [naringenin, reference compound] here?
Answer: The proliferation of preadipocytes was “inhibit proliferation of preadipocytes”.

Question: For `O=c1c(O)c(-c2ccc(O)cc2)oc2cc(O)cc(O)c12` [kaempferol], which “PPARγ binding and activation” value (PPARγ [11]) is on record?
Answer: The value was “able to bind and activate PPARγ”.
